Where “and” joins values, the source holds several entries; their conditions need not be identical. Equal entries are not always repeated.
Legend:
[1] = tested on: dietary induced obese (DIO) mouse model; experiment: Growth (body weight, nose-anus length); format: in vivo; conditions: DIO mice; chronic dosing
Experimental: (§3) The following are a battery of tests used to elicit the effects of drugs on diseases including type I or II diabetes, obesity, dyslipidaemia, related metabolic disorders and cardiovascular disease. • a) Body weight: Bodyweights of all mice were measured twice weekly during the study. • b) Food intake: Food intake was measured by weight difference taking account of food wastage in the bottom of the cage. • c) Measurement of water consumption: Water intake was calculated daily for each animal, during the treatment period, by weight difference of the water bottle. • d) Oral Glucose Tolerance Test (OGTT): Glucose was dissolved in water (3 g/10 ml) and given to the mice orally at a rate of 3 g/kg. […] Samples were then analysed automatically using a SpectraMax-250 and SoftMax Pro software. • f) Plasma preparation: Blood was collected for the measurement of i) plasma insulin, ii) cholesterol, iii) free fatty acids or iv) triglyceride concentration. • i. Plasma insulin analysis: Plasma insulin was measured using 5 μl of plasma, compared with a mouse insulin standard using a 96-well micro-assay plate • ii. […] The samples were mixed and incubated for 5 minutes before reading at dual wavelengths of 500 and 660 nm. • iii. Plasma free fatty acids: 5 μl samples of plasma were measured into a 96-well assay plate, to which was added 0.2 ml of reagents NEFA C • iv. […]

[2] = tested on: dietary induced obese (DIO) mouse model; experiment: Percentage body fat by Dexascan; format: in vivo; conditions: DIO mice; day 28 Dexascan; pure THCV at 30-fold lower dose than rimonabant
Experimental: as §3

[3] = tested on: dietary induced obese (DIO) mouse model; experiment: 24 h energy expenditure by indirect calorimetry, chronic dosing study; format: in vivo; conditions: DIO mice
Source text: The C57B1/6 mouse fed on a high fat diet for around 12 weeks is a standard model used to evaluate agents likely to affect metabolic disease including obesity, type II diabetes and dyslipidaemia. Thus both potential anti-obesity effects and effects on diabetic and dyslipidaemia parameters will be measured.
Once the acute studies were complete the mice were grouped in two groups of five mice for the chronic dosing study. Dosing was daily by oral gavage at 09:00-10:00.

[4] = tested on: C57B1/6 ob/ob mouse; experiment: Fed plasma HDL-cholesterol; format: in vivo; conditions: ob/ob mice; for Fed HDL cholesterol day 28: individual values; for percentage HDL cholesterol day 28: HDL as percentage of total cholesterol
Experimental: The following are a battery of tests used to elicit the effects of drugs on diseases including type I or II diabetes, obesity, dyslipidaemia, related metabolic disorders and cardiovascular disease. • a) Body weight: Bodyweights of all mice were measured twice weekly during the study. • b) Food intake: Food intake was measured by weight difference taking account of food wastage in the bottom of the cage. • c) Measurement of water consumption: Water intake was calculated daily for each animal, during the treatment period, by weight difference of the water bottle. • d) Oral Glucose Tolerance Test (OGTT): Glucose was dissolved in water (3 g/10 ml) and given to the mice orally at a rate of 3 g/kg. […] Blood samples were also taken at −30 minutes for insulin analysis. • e) Blood Glucose analysis: Duplicate 20 μl samples of blood of were taken for each individual sample and placed in a 96-well assay plate. To each well was added 180 μl aliquots of glucose oxidase reagent. Samples were mixed and then left for approximately 30 minutes. Samples were then analysed automatically using a SpectraMax-250 and SoftMax Pro software. • f) Plasma preparation: Blood was collected for the measurement of i) plasma insulin, ii) cholesterol, iii) free fatty acids or iv) triglyceride concentration. • i. Plasma insulin analysis: Plasma insulin was measured using 5 μl of plasma, compared with a mouse insulin standard using a 96-well micro-assay plate • ii. Plasma cholesterol analysis: To each sample was added 200 μl of infinity cholesterol liquid stable reagent. The samples were mixed and incubated for 5 minutes before reading at dual wavelengths of 500 and 660 nm. • iii. Plasma free fatty acids: 5 μl samples of plasma were measured into a 96-well assay plate, to which was added 0.2 ml of reagents NEFA C • iv. Plasma triglycerides analysis: To each well 200 μl aliquots of triglycerides reagent. […] Comparison with a calibrated standard allowed identification of types of tissue by their density. Dedicated software was using to quantify amounts of bone and fat. The mice were lightly anaesthetised, sufficient to keep them quiescent during this non-invasive technique. • h) Energy expenditure measurements: Energy expenditure was measured by open circuit indirect calorimetry with mice in their home cages. For studies of 24 h energy expenditure, mice were dosed with their allocated treatment and then measurements commenced. […] Plasma leptin was measured in fed mice using the Crystal Chem Elisa assay. • j) Plasma adiponectin: Adiponectin exerts some of its weight reduction effects via the brain. This is similar to the action of leptin, but the two hormones perform complementary actions, and can have additive effects. Plasma adiponectin was measured in overnight fasted mice using the 96-well B-Bridge Elisa assay. • k) Plasma HDL-cholesterol: Plasma HDL-cholesterol was measured in fed mice using the kit from Trinity Biotech. • l) 24 h blood glucose profile: This was determined in order to ensure that changes in the diurnal control of blood glucose were detected. Thus blood samples were obtained at three hourly intervals throughout a continuous 24 h period. • m) Plasma haemoglobin AIC: Samples (10 μl) were analysed using the AIC. […] The homogenate was then extracted overnight at 4° C. and centrifuged at 2000 g for 5 min. • o) Pancreatic islet histology: […] sections were cut using a Leica RM2125 rotary microtome, transferred to positively-charged glass slides and dried overnight at 42° C. Morphology was assessed using hematoxylin and eosin staining. • p) Liver glycogen: After centrifugation (3000×g for 15 min), an aliquot of the supernatant (10 μl) is assayed using the glucose oxidase method. […] 1 ml of chloroform is added and tubes vortexed and left at 4° C. for 2 h with vortexing every 30 min. 200 μl of 0.9% sodium chloride is added and after thorough vortexing, the mixture is centrifuged at 300×g for 5 min.

[5] = tested on: C57B1/Ks db/db mouse; experiment: Plasma insulin concentration; format: in vivo; conditions: db/db mice
Experimental: (§1) Inflammation is also a feature of type II diabetic animals and man. […] However, as a result of the C57B1/Ks genetic background rather than the C57B1/6, the mice show loss of pancreatic function from around 6/7 weeks of age and by 10 weeks show frank diabetes.
The mice were given chow diet (Bantin and Kingman, no 1 diet) and water ad lib. The mice were kept under controlled lighting conditions (lights on 08.00 h, 12 h light/12 h dark) and at a room temperature of 21°±1° C.
(§2) • Daily: Food and water intake • Twice weekly: Body weight and glucose • Day 1: Weigh mice, dose compounds, provide measured amount of food, provide measured amount of water • Days 2, 5 and 8: Fed blood glucose concentration • Day 9: Oral glucose tolerance • Days 12 and 16: Fed blood glucose concentration • Day 19: 24 hr glycaemic assay • Days 22, 26 and 29: Fed blood glucose concentration • Day 33: 24 hr glycaemic assay • Day 38: Fed blood glucose concentration • Day 39: Body composition by Dexascan in anaesthetised mice • Day 41: Termination. Take blood samples for glucose, free fatty acids, triglycerides, cholesterol, insulin and HbA

[6] = tested on: C57B1/Ks db/db mouse; experiment: Glycaemic control (blood glucose, oral glucose tolerance, 24 h glucose profile); format: in vivo; conditions: db/db mice
Source text: as §1, §2

[7] = tested on: NOD mice; conditions: 86% in non-treated controls; cited from earlier work
[8] = tested on: aorta; experiment: Chronic treatment of rats, vascular responses in isolated arteries; format: in vivo, rat; conditions: aorta of rats treated for 2 weeks
[9] = 0.3 mg·kg−1 daily oral gavage (combination: both 0.3)
[10] = 3.0 mg·kg−1 daily oral gavage (combination: both 3.0)

Q: With CCCc1cc(O)c2c(c1)OC(C)(C)[C@@H]1CCC(C)=C[C@@H]21 [THCV, tetrahydrocannabivarin] as the compound, how does the Effect on growth [1] read?
A: without any effect on growth

Q: And the Percentage body fat [2]?
A: at least as effective as rimonabant

Q: And the “Potency on energy expenditure relative to rimonabant, on a dosage basis” value [3]?
A: at least 10 fold

Q: What about the “Effectiveness on energy expenditure compared with rimonabant” value ([3]; high dose THCV-BDS, pure THCV 0.3 mg kg−1) of the same compound?
A: more effective than rimonabant

Q: What about the “Fed HDL cholesterol day 28” value [4, 9] of the same compound?
A: 2.16 (3×) and 2.35 and 2.33 and 2.21 and 2.25 and 2.14

Q: What about the “Fed HDL cholesterol day 28” value [4, 10] of the same compound?
A: 2.17 and 2.16 and 2.24 and 2.51 and 2.98 and 2.94 and 2.57 and 2.28

Q: What about the “percentage HDL cholesterol day 28” value [4, 9] of the same compound?
A: 30.4% and 25.1% and 33.6% and 39.3% and 37.5% and 34.3% and 37.9% and 38.0%

Q: What about the “percentage HDL cholesterol day 28” value [4, 10] of the same compound?
A: 34.5% and 31.1% and 34.0% and 40.4% and 41.3% and 45.6% and 33.6% and 32.4%

Q: Which results are given for C=C(C)[C@@H]1CCC(C)=C[C@H]1c1c(O)cc(CCCCC)cc1O [CBD, cannabidiol]?
A: Plasma insulin during the 24 h glucose profiles [5]: no consistent effect was seen; Glycaemic control versus control [6]: did not show significant differences in glycaemic control; Incidence of diabetes [7]: 30%; Fed HDL cholesterol day 28 [4, 10]: increasing the amount and 3.31 and 3.00 and 3.36 and 3.63 and 2.98 and 3.38 and 3.18; Fed HDL cholesterol day 28 ([4]; 3.0 mg·kg−1 daily oral gavage (combination: both 3.0), listed as Pure CBD): increasing the plasma HDL-cholesterol concentration; Maximal response to methoxamine [8]: 1.63±0.21 g increase tension; Potency of acetylcholine (pEC50) [8]: 5.37±0.40

— patent publication US20130245110A1, “USE FOR CANNABINOIDS” (priority 2008, published 2013)
